One experiment has as its target Histone deacetylase. The experiment is described as follows: Inhibition of human HDAC in HeLa cells by flour de lys assay. The class given is cell-based.
Experiment [1] has as its system DU-145. The experiment can be described thus: Viability of human DU145 cells after 72 hrs by trypan blue staining. The class given is functional, cell-based. The following applies: DU-145, 72 h.
Experiment [2] relates to DU-145. The experiment can be described thus: Viability of human DU145 cells after 72 hrs by MTS assay. Conditions: DU-145, 72 h. The experiment is classed as functional, cell-based.

The term IC50 denotes the concentration that gives 50% inhibition. Higher therefore signals a need for much substance. As to `O=C(CCCCCn1cc(-c2ccncc2)nn1)NO`, the IC50 against Histone deacetylase is 112.5 nM.
On the same count and under the same terms, then `Cc1cccc(-c2cn(CCCCCC(=O)NO)nn2)c1`, with 31.9 nM.
Consider `O=C(CCCCCCn1cc(-c2cccc(-c3ccccc3)c2)nn1)NO`, for which the IC50 on Histone deacetylase came to 5.4 nM.
The molecule `COc1ccccc1-c1cn(CCCCCC(=O)NO)nn1` returned an IC50 against Histone deacetylase of 76 nM.
Turning to `O=C(CCCCCCn1cc(-c2ccccn2)nn1)NO`, the IC50 against Histone deacetylase came out at 23.9 nM.
At Histone deacetylase, `CN(C)c1ccc(-c2cn(CCCCCCC(=O)NO)nn2)cc1` had an IC50 of 106.1 nM.
The molecule `Cc1ccc(-c2cn(CCCCCC(=O)NO)nn2)cc1` showed an IC50 at Histone deacetylase of 43.4 nM.
Molecule `O=C(CCCCCn1cc(-c2cccs2)nn1)NO` registered an IC50 on Histone deacetylase of 31.7 nM.
Take `O=C(CCCCCn1cc(-c2ccc3cccnc3c2)nn1)NO`: the IC50 on Histone deacetylase stood at 151.5 nM.
Take `O=C(CCCCCCn1cc(-c2ccc(-c3ccncc3)cc2)nn1)NO`: the IC50 at Histone deacetylase is recorded as 16.6 nM.
As usually defined, the EC50 is the concentration at which the effect is half-maximal. The low end stands for a more potent agent, the high end for a less potent agent. The molecule `O=C(CCCCCn1cc(-c2ccc(-c3ccncc3)cc2)nn1)NO` came in with an IC50 on Histone deacetylase of 2.3 nM. Further, the results for the EC50 with DU-145 [1] and with DU-145 [2] were 4720 nM and 3070 nM, respectively.
`O=C(CCCCCCC(=O)Nc1ccccc1)NO` [VORINOSTAT] came in with an EC50 in the experiment on DU-145 [1] of 2120 nM.
For `COc1cccc(-c2cn(CCCCCC(=O)NO)nn2)c1`, the IC50 against Histone deacetylase amounted to 13.9 nM.
On to `O=C(CCCCCn1cc(-c2ccc(-c3ccccc3)cc2)nn1)NO`, for which the IC50 on Histone deacetylase is on record as 52.4 nM.
Turning to `COc1ccc2cc(-c3cn(CCCCCC(=O)NO)nn3)ccc2c1`, the IC50 against Histone deacetylase worked out at 1.8 nM. The results for the EC50 in the experiment on DU-145 [1] and in the experiment with DU-145 [2] were 3950 nM and 2600 nM, respectively.
Turning to `O=C(CCCCCn1cc(-c2cccc(-c3ccccc3)c2)nn1)NO`, on Histone deacetylase, the IC50 was found to be 1.9 nM.
With `CN(C)c1ccc(-c2cn(CCCCCC(=O)NO)nn2)cc1`, the IC50 against Histone deacetylase amounted to 4.3 nM.
On Histone deacetylase, `COc1ccc(-c2cn(CCCCCC(=O)NO)nn2)cc1` gave a concentration for half-maximal inhibition (IC50) of 2.09 nM.
`O=C(CCCCCn1cc(-c2ccc3ccccc3n2)nn1)NO` showed an IC50 on Histone deacetylase of 2.1 nM. In addition, the EC50 in the experiment on DU-145 [1] came out at 2250 nM; in the experiment with DU-145 [2] it was 2460 nM.
On to `Cc1ccccc1-c1cn(CCCCCC(=O)NO)nn1`, for which, at Histone deacetylase, the IC50 amounted to 17.4 nM.
Molecule `O=C(CCCCCCn1cc(-c2ccccc2)nn1)NO` displayed an IC50 on Histone deacetylase of 9.6 nM.
On to `O=C(CCCCCn1cc(-c2cccnc2)nn1)NO`, for which, at Histone deacetylase, the IC50 was determined as 287.2 nM.
In turn, `O=C(CCCCCn1cc(-c2ccccc2)nn1)NO` displayed an IC50 on Histone deacetylase of 14.2 nM.
On to `COc1ccc2cc(-c3cn(CCCCCCC(=O)NO)nn3)ccc2c1`, for which the IC50 against Histone deacetylase came to 15.3 nM. In addition, the EC50 came out at 7760 nM in the experiment with DU-145 [1] and 3990 nM in the experiment on DU-145 [2].
Molecule `O=C(CCCCCn1cc(-c2ccccc2-c2ccccc2)nn1)NO` returned an IC50 at Histone deacetylase of 162.6 nM.
`COc1cccc(OC)c1-c1cn(CCCCCC(=O)NO)nn1` had an IC50 at Histone deacetylase of 315.9 nM.

The values above are taken from ChEMBL document CHEMBL1157204, “Synthesis and structure-activity relationship of histone deacetylase (HDAC) inhibitors with triazole-linked cap group” (Bioorg Med Chem, 2008).
